Source: US11912701B2, “Protein kinase inhibitors for promoting liver regeneration or reducing or preventing hepatocyte death” (HEPAREGENIX GMBH, priority 2018, dated 2024)

How the values were obtained:
MKK4 [1] = target: T1, MKK4 (Homo sapiens, UniProt P45985); assay: KINOMEscan competition binding assay, MKK4; conditions: residual percent of control binding (PoC) at 100 nM
T1 construct: S84/D399; host or cells: HEK-293
T1 sequence (P45985 84-399): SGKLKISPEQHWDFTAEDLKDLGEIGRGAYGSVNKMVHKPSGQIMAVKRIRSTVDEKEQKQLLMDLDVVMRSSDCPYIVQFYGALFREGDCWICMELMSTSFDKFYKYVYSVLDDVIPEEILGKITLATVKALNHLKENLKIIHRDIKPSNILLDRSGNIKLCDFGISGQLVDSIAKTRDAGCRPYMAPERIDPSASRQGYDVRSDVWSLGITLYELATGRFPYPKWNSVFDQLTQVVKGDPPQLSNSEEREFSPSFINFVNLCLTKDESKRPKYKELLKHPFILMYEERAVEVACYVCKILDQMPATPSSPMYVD
Procedure: (§1) The assay was performed by combining three components: DNA-tagged kinase; immobilized ligand; and a test compound. The ability of the test compound to compete with the immobilized ligand was measured via quantitative PCR of the DNA tag. The technology is described in detail in Fabian, M. A. et al. A small molecule-kinase interaction map for clinical kinase inhibitors. Nat. […] Nat.
(§2) For investigation of the affinity to MKK4, BRaf, MKK7 and JNK1, the kinases were produced in HEK-293 cells and subsequently tagged with DNA for qPCR detection. […] The liganded beads were blocked with excess biotin and washed with blocking buffer (SEABLOCK™ (Pierce), 1% BSA, 0.05% TWEEN®20, 1 mM DTT) to remove unbound ligand and to reduce nonspecific binding. […] All reactions were performed in polystyrene 96-well plates in a final volume of 0.135 mL. […] The kinase concentration in the eluates was measured by qPCR.
(§3) The test compounds were provided as 10 mM stock solutions. The test solutions at indicated final concentrations were prepared at DiscoverX.
Potency of representative examples against the protein kinases MKK4, BRaf, MKK7 and JNK1 expressed as residual percent of control binding (PoC), was determined at a concentration of 100 nM. The determined potencies are categorized as follows: […]

JNK1 = JNK1 (Homo sapiens, UniProt P45983); assay: KINOMEscan competition binding assay, JNK1; set-up: M1/Q384; host or cells: HEK-293; conditions: ratio PoC (off-target)/PoC (MKK4)
Chain of JNK1 (P45983 1-384 isoform P45983-2): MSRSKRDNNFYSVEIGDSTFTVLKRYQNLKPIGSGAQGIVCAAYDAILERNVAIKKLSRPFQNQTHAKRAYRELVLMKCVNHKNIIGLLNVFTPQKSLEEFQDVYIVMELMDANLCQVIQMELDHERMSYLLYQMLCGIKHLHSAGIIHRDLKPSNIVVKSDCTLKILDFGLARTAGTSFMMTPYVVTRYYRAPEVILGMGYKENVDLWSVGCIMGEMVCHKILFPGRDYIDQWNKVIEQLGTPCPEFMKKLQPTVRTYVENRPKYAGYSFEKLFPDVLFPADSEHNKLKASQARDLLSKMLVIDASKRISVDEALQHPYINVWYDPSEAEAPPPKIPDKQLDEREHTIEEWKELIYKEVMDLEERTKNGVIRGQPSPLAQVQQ
Procedure: as §1, §2, §3
(§4) Potency of representative examples against the protein kinases MKK4, BRaf, MKK7 and JNK1 expressed as residual percent of control binding (PoC), was determined at a concentration of 100 nM. The determined potencies are categorized as follows:
(§5) The binding selectivity of representative examples against the protein kinases BRaf, MKK7 and JNK1, altogether denominated as “off-targets” is determined by the ratios of PoC (off-target)/PoC (MKK4).

MKK4 [2] = target: T2, MKK4 (Homo sapiens, UniProt P45985); assay: 33PanQinase enzyme assay, MKK4; assay type: biochemical; conditions: single concentration 100 nM; read-out: Potency MKK4 (residual activity, assay at single concentration)
T2 construct: purchased ProQinase GmbH, Freiburg, Germany (33PanQinase Assay Service)
T2 sequence (P45985 1-399): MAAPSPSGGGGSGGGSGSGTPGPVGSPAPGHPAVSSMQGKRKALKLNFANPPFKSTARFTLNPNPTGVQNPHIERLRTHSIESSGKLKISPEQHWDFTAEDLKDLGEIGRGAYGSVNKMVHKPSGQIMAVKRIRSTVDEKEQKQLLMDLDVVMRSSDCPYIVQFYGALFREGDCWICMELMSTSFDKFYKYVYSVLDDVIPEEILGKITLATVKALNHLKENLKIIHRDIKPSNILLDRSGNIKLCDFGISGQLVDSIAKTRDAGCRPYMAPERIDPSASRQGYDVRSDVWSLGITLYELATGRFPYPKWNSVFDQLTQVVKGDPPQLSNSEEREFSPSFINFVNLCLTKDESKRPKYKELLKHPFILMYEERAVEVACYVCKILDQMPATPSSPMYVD
Method in brief: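 Radiometric 33PanQinase assay: kinase, substrate, ATP and compound in standard buffer, 60 min at 30 °C; 33Pi incorporation read by scintillation counting.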

MKK7 = target: T3, MKK7 (Homo sapiens, UniProt O14733); assay: KINOMEscan competition binding assay, MKK7; set-up: M1/R419; host or cells: HEK-293; conditions: ratio PoC (off-target)/PoC (MKK4)
T3 sequence (O14733 1-419): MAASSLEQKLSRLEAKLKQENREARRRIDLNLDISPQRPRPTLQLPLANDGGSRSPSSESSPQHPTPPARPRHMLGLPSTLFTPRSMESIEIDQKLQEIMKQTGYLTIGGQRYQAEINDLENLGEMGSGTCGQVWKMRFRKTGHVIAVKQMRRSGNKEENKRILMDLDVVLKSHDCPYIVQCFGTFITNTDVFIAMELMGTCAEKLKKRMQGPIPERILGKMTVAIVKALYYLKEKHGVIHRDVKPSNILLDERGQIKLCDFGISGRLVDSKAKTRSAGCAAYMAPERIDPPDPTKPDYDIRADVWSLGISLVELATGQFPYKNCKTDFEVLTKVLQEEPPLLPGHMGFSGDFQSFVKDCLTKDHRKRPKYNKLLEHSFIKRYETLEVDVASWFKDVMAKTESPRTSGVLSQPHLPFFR
Procedure: as §1, §2, §3, §4, §5

BRaf = target: T4, BRaf (Homo sapiens, UniProt P15056); assay: KINOMEscan competition binding assay, BRaf; conditions: ratio PoC (off-target)/PoC (MKK4)
T4 construct: purchased ProQinase GmbH, Freiburg, Germany (33PanQinase Assay Service)
T4 sequence (P15056 whole entry, species assumed): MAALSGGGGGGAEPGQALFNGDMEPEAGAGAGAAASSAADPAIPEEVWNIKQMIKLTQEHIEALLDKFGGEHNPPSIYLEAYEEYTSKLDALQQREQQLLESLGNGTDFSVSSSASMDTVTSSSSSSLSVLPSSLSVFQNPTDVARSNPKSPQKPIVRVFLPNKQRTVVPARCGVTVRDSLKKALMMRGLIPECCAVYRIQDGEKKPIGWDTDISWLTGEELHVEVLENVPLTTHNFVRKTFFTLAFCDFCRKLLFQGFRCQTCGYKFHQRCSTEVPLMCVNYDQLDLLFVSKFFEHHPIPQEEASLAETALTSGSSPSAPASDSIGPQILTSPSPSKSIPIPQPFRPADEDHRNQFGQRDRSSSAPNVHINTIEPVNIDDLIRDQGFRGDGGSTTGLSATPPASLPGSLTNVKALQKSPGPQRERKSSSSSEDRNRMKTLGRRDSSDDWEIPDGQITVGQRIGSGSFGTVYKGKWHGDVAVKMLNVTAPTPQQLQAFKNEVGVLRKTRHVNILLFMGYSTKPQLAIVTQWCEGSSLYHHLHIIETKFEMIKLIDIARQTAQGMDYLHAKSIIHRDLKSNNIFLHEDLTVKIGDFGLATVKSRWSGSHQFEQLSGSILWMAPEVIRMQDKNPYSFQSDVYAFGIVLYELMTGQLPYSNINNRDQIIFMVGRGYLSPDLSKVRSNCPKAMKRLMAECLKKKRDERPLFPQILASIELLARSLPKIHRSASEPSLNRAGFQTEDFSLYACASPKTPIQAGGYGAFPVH
Procedure: as §1, §2, §3, §4, §5

SMILES | MKK4 [% Ctrl @ 100 nM (MKK4 [1]) | selectivity based on % Ctrl @100 nM vs. JNK1 (JNK1) | remaining activity at 0.1 µM (MKK4 [2]) [%] | selectivity based on % Ctrl @100 nM vs. MKK7 (MKK7) | selectivity based on % Ctrl @100 nM vs. Braf (BRaf)
CCCS(=O)(=O)Nc1ccc(F)c(C(=O)c2c[nH]c3ncc(-c4ccc5ccsc5c4)cc23)c1F [Example 51] | + (3 ≤ PoC < 30) | ◯ (3 ≥ Ratio) | 70 to 90 | + (10 ≥ ratio > 3) | ◯ (3 ≥ Ratio)
O=C(c1c(F)ccc(NS(=O)(=O)Cc2ccccc2)c1F)c1c[nH]c2ncc(-c3ccc(OCC(O)CO)cc3Cl)cc12 (stereo not shown) [Example 41, N-(3-(5-(2-chloro-4-(2,3-dihydroxypropoxy)phenyl)-1H-pyrrolo[2,3-b]pyridine-3-carbonyl)-2,4-difluorophenyl)-1-phenylmethane-sulfonamide] | ++ (1 ≤ PoC < 3) | ++ (100 ≥ ratio > 10) | 70 to 90 | ++ (100 ≥ ratio > 10) | ++ (100 ≥ ratio > 10)
O=C(c1c(F)ccc(NS(=O)(=O)CCCO)c1F)c1c[nH]c2ncc(-c3ccc(Cl)cc3)cc12 [Example 67, N-(3-(5-(4-chlorophenyl)-1H-pyrrolo[2,3-b]pyridine-3-carbonyl)-2,4-difluorophenyl)-3-hydroxypropane-1-sulfonamide] | ◯ (30 ≤ PoC) | ◯ (3 ≥ Ratio) | > 90 | ◯ (3 ≥ Ratio) | ◯ (3 ≥ Ratio)
O=C(c1c(F)ccc(NS(=O)(=O)Cc2ccccc2)c1F)c1c[nH]c2ncc(-c3ccc(F)cc3)cc12 [Example 28, N-(2,4-difluoro-3-(5-(4-fluorophenyl)-1H-pyrrolo[2,3-b]pyridine-3-carbonyl)phenyl)-1-phenylmethanesulfonamide] | ++ (1 ≤ PoC < 3) | ++ (100 ≥ ratio > 10) |  | ++ (100 ≥ ratio > 10) | ++ (100 ≥ ratio > 10)
CCCS(=O)(=O)Nc1ccc(F)c(C(=O)c2c[nH]c3ncc(-c4ccc(OCC(O)CO)cc4)cc23)c1F (stereo not shown) [Example 31, N-(3-(5-(4-(2,3-dihydroxypropoxy)phenyl)-1H-pyrrolo[2,3-b]pyridine-3-carbonyl)-2,4-difluorophenyl)propane-1-sulfonamide] | +++ (PoC < 1) | +++ (Ratio > 100) |  | +++ (Ratio > 100) | ◯ (3 ≥ Ratio)
CCCS(=O)(=O)Nc1cc(Br)cc(C(=O)c2c[nH]c3ncc(-c4ccc(Cl)cc4)cc23)c1 [Example 13, N-(3-bromo-5-(5-(4-chlorophenyl)-1H-pyrrolo[2,3-b]pyridine-3-carbonyl)-phenyl)propane-1-sulfonamide] | ◯ (30 ≤ PoC) | ◯ (3 ≥ Ratio) |  | ◯ (3 ≥ Ratio) | ◯ (3 ≥ Ratio)
CCCNS(=O)(=O)c1cccc(C(=O)c2c[nH]c3ncc(Br)cc23)c1 [Example 14, 3-(5-bromo-1H-pyrrolo[2,3-b]pyridine-3-carbonyl)-N-propyl benzene sulfonamide] | ◯ (30 ≤ PoC) | ◯ (3 ≥ Ratio) |  | ◯ (3 ≥ Ratio) | ◯ (3 ≥ Ratio)
CCCS(=O)(=O)Nc1ccc(F)c(C(=O)c2c[nH]c3ncc(-c4ccc(OCC(O)CO)cc4Cl)cc23)c1F (stereo not shown) [Example 30, N-(3-(5-(2-chloro-4-(2,3-dihydroxypropoxy)phenyl)-1H-pyrrolo[2,3-b]pyridine-3-carbonyl)-2,4-difluorophenyl)propane-1-sulfonamide] | +++ (PoC < 1) | +++ (Ratio > 100) |  | +++ (Ratio > 100) | ++ (100 ≥ ratio > 10)
CCCS(=O)(=O)Nc1ccc(F)c(C(=O)c2c[nH]c3ncc(-c4ccc(OC)cc4OC)cc23)c1F [Example 104, N-(3-(5-(2,4-dimethoxyphenyl)-1H-pyrrolo[2,3-b]pyridine-3-carbonyl)-2,4-difluorophenyl)propane-1-sulfonamide] | + (3 ≤ PoC < 30) | ++ (100 ≥ ratio > 10) |  | ++ (100 ≥ ratio > 10) | + (10 ≥ ratio > 3)
CCCS(=O)(=O)Nc1cc(Cl)cc(C(=O)c2c[nH]c3ncc(-c4ccc(Cl)cc4)cc23)c1 [Example 16, N-(3-chloro-5-(5-(4-chlorophenyl)-1H-pyrrolo[2,3-b]pyridine-3-carbonyl)phenyl)propane-1-sulfonamide] | ◯ (30 ≤ PoC) | ◯ (3 ≥ Ratio) |  | ◯ (3 ≥ Ratio) | ◯ (3 ≥ Ratio)
CCCS(=O)(=O)Nc1ccc(F)c(C(=O)c2c[nH]c3ncc(-c4ccc(N5CCN(C(C)=O)CC5)cc4)cc23)c1F [Example 24, N-(3-(5-(4-(4-acetylpiperazin-1-yl)phenyl)-1H-pyrrolo[2,3-b]pyridine-3-carbonyl)-2,4-difluorophenyl)propane-1-sulfonamide] | + (3 ≤ PoC < 30) | + (10 ≥ ratio > 3) |  | ++ (100 ≥ ratio > 10) | ◯ (3 ≥ Ratio)
CCCCS(=O)(=O)Nc1ccc(F)c(C(=O)c2c[nH]c3ncc(-c4ccc(F)cc4C)cc23)c1F [Example 19, N-(2,4-difluoro-3-(5-(4-fluoro-2-methylphenyl)-1H-pyrrolo[2,3-b]pyridine-3-carbonyl)phenyl)butane-1-sulfonamide] | + (3 ≤ PoC < 30) | ++ (100 ≥ ratio > 10) |  | ++ (100 ≥ ratio > 10) | ++ (100 ≥ ratio > 10)
COc1ccc(-c2cnc3[nH]cc(C(=O)c4c(F)ccc(NS(=O)(=O)Cc5ccccc5)c4F)c3c2)cc1 [Example 26, N-(2,4-difluoro-3-(5-(4-methoxyphenyl)-1H-pyrrolo[2,3-b]pyridine-3-carbonyl)phenyl)-1-phenylmethanesulfonamide] | ++ (1 ≤ PoC < 3) | ++ (100 ≥ ratio > 10) |  | ++ (100 ≥ ratio > 10) | ++ (100 ≥ ratio > 10)
